Laboratory results as given in PubChem BioAssay (NCI).
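Dose response: 5 concentrations. Exposure: 48 h. Format: 96-well plates. Endpoint: linear interpolation; highest concentration if not reached. The concentration for full growth arrest is given as TGI.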

What was measured:
Assay in all cases: NCI tumour cell line growth inhibition, 48 h
SK-MEL-2 melanoma = test system: SK-MEL-2 melanoma
HCC-2998 colon = test system: HCC-2998 colon
A498 renal = test system: A498 renal
IGROV1 ovarian = test system: IGROV1 ovarian
MOLT-4 leukemia = test system: MOLT-4 leukemia
OVCAR-3 ovarian = test system: OVCAR-3 ovarian
UACC-257 melanoma = test system: UACC-257 melanoma
CAKI-1 renal = test system: CAKI-1 renal
HOP-62 NSCLC = test system: HOP-62 NSCLC
786-0 renal = test system: 786-0 renal
M14 melanoma = test system: M14 melanoma
CCRF-CEM leukemia = test system: CCRF-CEM leukemia
HT29 colon = test system: HT29 colon
SW-620 colon = test system: SW-620 colon
LXFL 529 NSCLC = test system: LXFL 529 NSCLC
RXF 393 renal = test system: RXF 393 renal
SF-295 CNS = test system: SF-295 CNS
SN12C renal = test system: SN12C renal
LOX IMVI melanoma = test system: LOX IMVI melanoma
OVCAR-8 ovarian = test system: OVCAR-8 ovarian
DMS 273 small cell lung = test system: DMS 273 small cell lung
HOP-18 NSCLC = test system: HOP-18 NSCLC
OVCAR-4 ovarian = test system: OVCAR-4 ovarian
NCI-H23 lung = test system: NCI-H23 lung
U251 CNS = test system: U251 CNS
HL-60(TB) leukemia = test system: HL-60(TB) leukemia
UACC-62 melanoma = test system: UACC-62 melanoma
A549 NSCLC = test system: A549 NSCLC
NCI-H226 lung = test system: NCI-H226 lung
SNB-78 CNS = test system: SNB-78 CNS
HCT-15 colon = test system: HCT-15 colon
NCI-H522 lung = test system: NCI-H522 lung
TK-10 renal = test system: TK-10 renal
MALME-3M melanoma = test system: MALME-3M melanoma
UO-31 renal = test system: UO-31 renal
DLD-1 colon = test system: DLD-1 colon
RPMI-8226 leukemia = test system: RPMI-8226 leukemia
COLO 205 colon = test system: COLO 205 colon
K-562 leukemia = test system: K-562 leukemia
KM12 colon = test system: KM12 colon
SNB-19 CNS = test system: SNB-19 CNS
SK-MEL-5 melanoma = test system: SK-MEL-5 melanoma
DMS 114 small cell lung = test system: DMS 114 small cell lung
RXF-631 renal = test system: RXF-631 renal
M19-MEL melanoma = test system: M19-MEL melanoma
SK-OV-3 ovarian = test system: SK-OV-3 ovarian
EKVX NSCLC = test system: EKVX NSCLC
OVCAR-5 ovarian = test system: OVCAR-5 ovarian
ACHN renal = test system: ACHN renal
SF-539 CNS = test system: SF-539 CNS

Measured: TGI

CCOC(=O)c1ccc(N=Nc2ccc(N(CCC#N)CCC#N)cc2C)cc1
> 100 µM: all assays above
